# Assay results: patent publication US8232269B2, “Amide compounds useful in therapy” (Pfizer Inc., priority 2008, dated 2012)
# Target: T1, Progesterone Receptor (PR) (Homo sapiens, UniProt P06401)
# T1 construct: endogenous in cells; host or cells: T47D human breast mammary carcinoma cells
# T1 sequence (P06401 1-933): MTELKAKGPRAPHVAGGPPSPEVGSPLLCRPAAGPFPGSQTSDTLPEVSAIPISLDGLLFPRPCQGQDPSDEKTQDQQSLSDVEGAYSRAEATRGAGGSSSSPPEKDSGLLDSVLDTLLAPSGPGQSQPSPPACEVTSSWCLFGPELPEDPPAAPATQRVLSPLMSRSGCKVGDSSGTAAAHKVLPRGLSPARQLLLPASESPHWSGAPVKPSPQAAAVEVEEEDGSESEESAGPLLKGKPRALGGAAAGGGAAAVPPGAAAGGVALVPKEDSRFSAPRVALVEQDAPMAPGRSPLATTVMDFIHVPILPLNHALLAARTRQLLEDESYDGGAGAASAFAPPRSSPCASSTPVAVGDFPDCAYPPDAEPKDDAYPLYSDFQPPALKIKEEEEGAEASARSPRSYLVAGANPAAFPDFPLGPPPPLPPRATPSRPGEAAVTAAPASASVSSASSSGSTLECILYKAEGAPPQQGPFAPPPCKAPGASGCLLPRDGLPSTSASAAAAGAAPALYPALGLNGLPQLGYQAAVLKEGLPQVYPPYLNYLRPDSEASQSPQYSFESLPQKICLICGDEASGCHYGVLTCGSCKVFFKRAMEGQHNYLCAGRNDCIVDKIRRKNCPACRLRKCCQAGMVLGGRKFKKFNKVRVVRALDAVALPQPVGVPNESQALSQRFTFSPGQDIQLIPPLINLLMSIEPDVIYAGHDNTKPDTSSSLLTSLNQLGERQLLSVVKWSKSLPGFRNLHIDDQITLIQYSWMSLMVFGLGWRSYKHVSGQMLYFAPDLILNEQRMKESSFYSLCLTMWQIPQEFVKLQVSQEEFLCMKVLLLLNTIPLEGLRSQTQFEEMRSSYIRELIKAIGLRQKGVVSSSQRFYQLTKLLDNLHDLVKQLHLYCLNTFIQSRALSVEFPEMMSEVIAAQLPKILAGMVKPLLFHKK
# Assay: In vitro functional assay for progesterone receptor (PR) antagonists: inhibition of progesterone-induced alkaline phosphatase expression in T47D cells
# Format: cell-based
# Settings: antagonist format, 5 nM progesterone, Ki calculated from IC50 with the Cheng-Prusoff equation
# Summary of the method: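 Antagonist format: T47D cells (8750/well, phenol red-free DMEM + 5% CS-FCS) given half-log compound dilutions plus 5 nM progesterone (final), incubated overnight (≥16 h) at 37 °C. Alkaline phosphatase read by CSPD chemiluminescence after freeze-thaw lysis; 0.1 μM RU-486 final defines minimum.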
row,Structure (SMILES),Ki
1,"CC(C)n1nc(-c2ccc(C#N)cc2)c(C2CC2)c1C(=O)NCC(C)(C)C [Example 34, 3-(4-Cyanophenyl)-4-cyclopropyl-N-(2,2-dimethylpropyl)-1-isopropyl-1H-pyrazole-5-carboxamide]",18.9 nM
2,"CC[C@@H](C)NC(=O)c1c(C2CC2)c(-c2ccc(C#N)cc2)nn1C(C)C [Example 35, 3-(4-Cyanophenyl)-4-cyclopropyl-1-isopropyl-N-[(1R)-1-methylpropyl]-1H-pyrazole-5-carboxamide]",11.2 nM
3,"CCNC(=O)CNC(=O)c1c(C2CC2)c(-c2ccc(C#N)cc2)nn1C(C)C [Example 42, 3-(4-Cyanophenyl)-4-cyclopropyl-N-[2-(ethylamino)-2-oxoethyl]-1-isopropyl-1H-pyrazole-5-carboxamide]",27.3 nM
4,CC(C)n1nc(-c2ccc(C#N)cc2)c(C2CC2)c1C(=O)NC1CCOCC1 [Example 43],26 nM
5,"CNC(=O)c1c(C2CC2)c(-c2ccc(C#N)cc2)nn1C(C)C [Example 46, 3-(4-Cyanophenyl)-4-cyclopropyl-1-isopropyl-N-methyl-1H-pyrazole-5-carboxamide]",> 2010 nM
6,"CC(C)n1nc(-c2ccc(C#N)cc2)c(C2CC2)c1C(=O)NCC(F)(F)F [Example 48, 3-(4-Cyanophenyl)-4-cyclopropyl-1-isopropyl-N-(2,2,2-trifluoroethyl)-1H-pyrazole-5-carboxamide]",5.27 nM
7,"CC(C)n1nc(-c2ccc(C#N)cc2)c(C2CC2)c1C(=O)NCC1CC1 [Example 49, 3-(4-Cyanophenyl)-4-cyclopropyl-N-(cyclopropylmethyl)-1-isopropyl-1H-pyrazole-5-carboxamide]",4.94 nM
8,"CC(C)n1nc(-c2ccc(C#N)cc2)c(C2CC2)c1C(=O)NC1CCC1 [Example 50, 3-(4-Cyanophenyl)-N-cyclobutyl-4-cyclopropyl-1-isopropyl-1H-pyrazole-5-carboxamide]",3.59 nM
9,"CC(C)n1nc(-c2ccc(C#N)cc2)c(C2CC2)c1C(=O)N(C)CC1CC1 [Example 51, 3-(4-Cyanophenyl)-4-cyclopropyl-N-(cyclopropylmethyl)-1-isopropyl-N-methyl-1H-pyrazole-5-carboxamide]",4.65 nM
10,"CC(C)n1nc(-c2ccc(C#N)cc2)c(C2CC2)c1C(=O)NC1CCOC1 (centres unmarked) [Example 52, 3-(4-Cyanophenyl)-4-cyclopropyl-1-isopropyl-N-(tetrahydrofuran-3-yl)-1H-pyrazole-5-carboxamide]",5.7 nM
11,"CC(C)n1nc(-c2ccc(C#N)cc2)c(C2CC2)c1C(=O)NC[C@H]1CCCO1 [Example 53, 3-(4-Cyanophenyl)-4-cyclopropyl-1-isopropyl-N-[(2R)-tetrahydrofuran-2-ylmethyl]-1H-pyrazole-5-carboxamide]",7.38 nM
12,"CC(C)n1nc(-c2ccc(C#N)cc2)c(C2CC2)c1C(=O)NCCC1CC1 [Example 54, 3-(4-Cyanophenyl)-4-cyclopropyl-N-(2-cyclopropylethyl)-1-isopropyl-1H-pyrazole-5-carboxamide]",8.45 nM
13,"CC(C)n1nc(-c2ccc(C#N)cc2)c(C2CC2)c1C(=O)NC[C@@H]1CCCO1 [Example 55, 3-(4-Cyanophenyl)-4-cyclopropyl-1-isopropyl-N-[(2S)-tetrahydrofuran-2-ylmethyl]-1H-pyrazole-5-carboxamide]",13.8 nM
14,"CC(C)n1nc(-c2ccc(C#N)cc2)c(C2CC2)c1C(=O)NC(C)(C)CO [Example 56, 3-(4-Cyanophenyl)-4-cyclopropyl-N-(2-hydroxy-1,1-dimethylethyl)-1-isopropyl-1H-pyrazole-5-carboxamide]",82.6 nM
15,"CC(C)n1nc(-c2ccc(C#N)cc2)c(C2CC2)c1C(=O)NC1CC1 [Example 58, 3-(4-Cyanophenyl)-N,4-dicyclopropyl-1-isopropyl-1H-pyrazole-5-carboxamide]",6.87 nM
16,"COCCNC(=O)c1c(C2CC2)c(-c2ccc(C#N)cc2)nn1C(C)C [Example 59, 3-(4-Cyanophenyl)-4-cyclopropyl-1-isopropyl-N-(2-methoxyethyl)-1H-pyrazole-5-carboxamide]",7.84 nM
17,"CC(C)n1nc(-c2ccc(C#N)cc2)c(C2CC2)c1C(=O)NC(C)(C)C [Example 60, N-tert-Butyl-3-(4-cyanophenyl)-4-cyclopropyl-1-isopropyl-1H-pyrazole-5-carboxamide]",42.1 nM
18,"CC(=O)CNC(=O)c1c(C2CC2)c(-c2ccc(C#N)cc2)nn1C(C)C [Example 61, 3-(4-Cyanophenyl)-4-cyclopropyl-1-isopropyl-N-(2-oxopropyl)-1H-pyrazole-5-carboxamide]",8.29 nM

row,Structure (SMILES),Ki
1,"Cc1cc(-c2nn(C(C)C)c(C(=O)NCC3CC3)c2C)ccc1C#N [Example 62, 3-(4-Cyano-3-methylphenyl)-N-(cyclopropylmethyl)-1-isopropyl-4-methyl-1H-pyrazole-5-carboxamide]",3.09 nM
2,"Cc1cc(-c2nn(C(C)C)c(C(=O)NC[C@H](C)O)c2C)ccc1C#N [Example 63, 3-(4-Cyano-3-methylphenyl)-N-[(2S)-2-hydroxypropyl]-1-isopropyl-4-methyl-1H-pyrazole-5-carboxamide]",6.24 nM
3,"Cc1cc(-c2nn(C(C)C)c(C(=O)NC[C@@H](C)O)c2C)ccc1C#N [Example 64, 3-(4-Cyano-3-methylphenyl)-N-[(2R)-2-hydroxypropyl]-1-isopropyl-4-methyl-1H-pyrazole-5-carboxamide]",10.9 nM
4,"CCNC(=O)c1c(C)c(-c2ccc(C#N)c(C)c2)nn1C(C)C [Example 65, 3-(4-Cyano-3-methylphenyl)-N-ethyl-1-isopropyl-4-methyl-1H-pyrazole-5-carboxamide]",3.55 nM
5,"Cc1cc(-c2nn(C(C)C)c(C(=O)NC(C)C)c2C)ccc1C#N [Example 66, 3-(4-Cyano-3-methylphenyl)-N,1-diisopropyl-4-methyl-1H-pyrazole-5-carboxamide]",3.56 nM
6,"Cc1cc(-c2nn(C(C)C)c(C(=O)NC3CC3)c2C)ccc1C#N [Example 67, 3-(4-Cyano-3-methylphenyl)-N-cyclopropyl-1-isopropyl-4-methyl-1H-pyrazole-5-carboxamide]",4.4 nM
7,"Cc1cc(-c2nn(C(C)C)c(C(=O)NCC(C)(C)O)c2C)ccc1C#N [Example 68, 3-(4-Cyano-3-methylphenyl)-N-(2-hydroxy-2-methylpropyl)-1-isopropyl-4-methyl-1H-pyrazole-5-carboxamide]",6.38 nM
8,"Cc1c(-c2ccc(C#N)cc2)nn(C2CCC2)c1C(=O)NCC1CC1 [Example 69, 3-(4-Cyanophenyl)-1-cyclobutyl-N-(cyclopropylmethyl)-4-methyl-1H-pyrazole-5-carboxamide]",3.4 nM
9,"CNC(=O)c1c(C)c(-c2ccc(C#N)cc2)nn1C1CCC1 [Example 70, 3-(4-Cyanophenyl)-1-cyclobutyl-N,4-dimethyl-1H-pyrazole-5-carboxamide]",5.51 nM
10,"Cc1c(-c2ccc(C#N)cc2)nn(C2CCC2)c1C(=O)NC1CC1 [Example 71, 3-(4-Cyanophenyl)-1-cyclobutyl-N-cyclopropyl-4-methyl-1H-pyrazole-5-carboxamide]",8.25 nM
11,"Cc1c(-c2ccc(C#N)cc2)nn(C2CCC2)c1C(=O)NC[C@H](C)O [Example 72, 3-(4-Cyanophenyl)-1-cyclobutyl-N-[(2S)-2-hydroxypropyl]-4-methyl-1H-pyrazole-5-carboxamide]",13.3 nM
12,"Cc1c(-c2ccc(C#N)cc2)nn(C2CCC2)c1C(=O)NC[C@@H](C)O [Example 73, 3-(4-Cyanophenyl)-1-cyclobutyl-N-[(2R)-2-hydroxypropyl]-4-methyl-1H-pyrazole-5-carboxamide]",29.1 nM
13,"Cc1c(-c2ccc(C#N)cc2)nn(C2CCC2)c1C(=O)NCC(C)(C)O [Example 74, 3-(4-Cyanophenyl)-1-cyclobutyl-N-(2-hydroxy-2-methylpropyl)-4-methyl-1H-pyrazole-5-carboxamide]",18.5 nM
14,"CNC(=O)c1c(C)c(-c2ccc(C#N)cc2)nn1C1CC1 [Example 81, 3-(4-Cyanophenyl)-1-cyclopropyl-N,4-dimethyl-1H-pyrazole-5-carboxamide]",61.2 nM
15,"Cc1c(-c2ccc(C#N)cc2)nn(C2CC2)c1C(=O)NCC1CC1 [Example 82, 3-(4-Cyanophenyl)-1-cyclopropyl-N-(cyclopropylmethyl)-4-methyl-1H-pyrazole-5-carboxamide]",70.2 nM
16,"CCNC(=O)c1c(C)c(-c2ccc(C#N)cc2)nn1C1CC1 [Example 83, 3-(4-Cyanophenyl)-1-cyclopropyl-N-ethyl-4-methyl-1H-pyrazole-5-carboxamide]",96.5 nM
17,"Cc1c(-c2ccc(C#N)cc2)nn(C2CC2)c1C(=O)NC1CC1 [Example 84, 3-(4-Cyanophenyl)-N,1-dicyclopropyl-4-methyl-1H-pyrazole-5-carboxamide]",125 nM
